Measurements taken from patent publication US8092800B2 (priority 2005, dated 2012).
Marks after values point to notes of the source that are not given here. Square brackets hold non-standard residues; d marks the D form. Peptide text beside a SMILES is read from it. * marks the point of attachment. Sta = CC(C)C[C@H](N)[C@@H](O)CC(=O)O; Isovaleryl = CC(C)CC(=O)*

Experiments:
C. albicans = test: Systemic C. albicans infection in Balb/c mice, PEGylated dAbs; type: in vivo, Candida albicans; conditions: 1 mg/kg at 2 h, 6 h and 24 h post infection
Description: Briefly, mice were chronically infected with C. albicans by injecting 1×10^6 cells per mouse via the lateral tail vein (in 0.2 ml saline). Anti-SAP2 or anti-MP65 dAbs were administered as previously indicated. Survival rates compared with control animals were measured.
PEGylated versions of both monomer and dimer constructs were assayed for efficacy in controlling a systemic C. albicans infection in Balb/c mice, using a protocol similar to the murine systemic model described above. One mg/kg of PEGylated dAb protein or fluconazole was administered at 2 h, 6 h and 24 h post infection to groups of 8 mice.

[1] = tested on: Candida albicans strain SA40; conditions: cited from earlier work
SAP2 = SAP2 (Candida albicans, UniProt P0DJ06)
Description: This was based on bovine serum albumin degradation by a native, highly purified SAP2 preparation, essentially as described by Ross et al. Briefly, each assay contained 0.6 ml of 1% (w/v) BSA (Sigma Chem. Co., Detroit, Mich.) in 50 mM sodium citrate pH 3.2 and 0.15 enzyme solution (100 μg/ml). After 30 min at 37° C. 0.4 ml 10% (w/v) trichloroacetic acid was added. The tubes were stored in ice for 30 min and then centrifuged (1600×g) for 10 min. The absorbance of supernatant was read at 280 nm. The control was 1% BSA in enzyme-free citrate buffer. One unit of enzyme catalysed a delta OD of 1 per minute.

Candida albicans = test: Adherence of Candida to plastic; type: cell-based; conditions: anti-MP65 dAbs
Description: The fungal cells were grown at 28° C. on YPD agar slants (2.0% wt/vol glucose, 1.0% wt/vol yeast extract, 2.0 wt/vol Bacto peptone, (Difco, Detroit, Mich.). Single suspensions of each organism were prepared by a modification of the procedure of Rotronsen (Rotronsen, D., et al. 1986. Rev Infect Dis.; 8:73-85). Briefly, cells were grown 24 h at 28° C. on a rotating drum in YBD broth pH5.0 (0.2% wt/vol yeast extract, 2.0% wt/vol […] and 2.0% wt/vol dextrose, (Difco, Detroit, Mich.). After harvesting by centrifugation, the C. albicans cells were washed three times in physiological solution (0.85% NaCl). Blastospores were counted with Thoma camera and adjusted to desired concentration (10^8 cells/ml) in Hank's Balanced Salt Solution with calcium and magnesium (Hyclone, Logan, Utah).
For adherence to the plastic, the fungal cells, grown as above, were washed twice with water and suspended at 1.5×10^3 cells/ml in modified Lee's or M199 liquid media. 1.5×10^3 cells were incubated for 3 hrs at 37° C. in 6-well polystyrene plates (Corning Incorporated, Corning, N.Y.,). After extensive washing, 1 ml of Sabouraud dextrose agar was poured in each well and allowed to solidify. After incubation at 37° C. for 24 hrs, colonies were counted and the results expressed as percentage of the inoculum. […]

[2] = tested on: Candida albicans strain SA40; test: Rat vaginal candidiasis model, strain SA40; type: in vivo; conditions: rats, pre-treated 30 min before intravaginal challenge with SA40
Description: The selected dAbs as described above were assayed for their capacity to accelerate fungus clearance from the rat vaginal cavity challenged by a virulent vaginopathic Candida strain. The controls were the use of an irrelevant dAb, and an anti-enolase antibody as negative ones and the antimycotic fluconazole and pepstatin A (the prototypal Sap inhibitor) as positive ones.

SAP2, sequence (P0DJ06 57-398): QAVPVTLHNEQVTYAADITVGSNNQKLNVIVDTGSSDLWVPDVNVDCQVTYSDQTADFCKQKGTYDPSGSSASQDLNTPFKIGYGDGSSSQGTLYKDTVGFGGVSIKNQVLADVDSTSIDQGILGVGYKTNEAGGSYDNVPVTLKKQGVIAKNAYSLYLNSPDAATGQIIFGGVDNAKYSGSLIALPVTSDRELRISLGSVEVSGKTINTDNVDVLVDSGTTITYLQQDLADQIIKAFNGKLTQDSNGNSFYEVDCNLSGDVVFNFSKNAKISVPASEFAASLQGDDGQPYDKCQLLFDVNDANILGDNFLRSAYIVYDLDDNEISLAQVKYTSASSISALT

Molecule: OC(Cn1cncn1)(Cn1cncn1)c1ccc(F)cc1F [Fluconazole, fluconazole]
- Mean Survival Time (C. albicans): >30 days
- Survival (C. albicans): 88%
- susceptibility of strain [1]: fully susceptible

Molecule: CC(C)CC(=O)N[C@H](C(=O)N[C@H](C(=O)N[C@@H](CC(C)C)[C@@H](O)CC(=O)N[C@@H](C)C(=O)N[C@@H](CC(C)C)[C@@H](O)CC(=O)O)C(C)C)C(C)C [pepstatin, pepstatin A] (Isovaleryl-VV[Sta]A[Sta]-OH)
- ΔOD/ml/min (BSA degradation by SAP) (SAP2; citrate buffer + 1% BSA + SAP, acidic conditions, no-inhibitor control 1.0): 0.36 ΔOD/ml/min
- % Inhibition (SAP2; inhibition of BSA degradation by SAP2, compared with pepstatin (100*)): 100* %

B1: ADR3-1: MP65 binding dAb, SEQ ID No 5 (antibody, listed as Homo sapiens, V domains shown)
VH: EVQLLESGGGLVQPGGSLRLSCAASGFTFPDYSMTWVRQAPGKGLEWVSLISNSGKTTMYADSVKGRFTISRDNSKNTLYLQMNSLRAEDTAVYYCAKWVNRILQEFDYWGQGTLVTVSS
modifications: MP65-binding dAb
- capacity to inhibit adherence to plastic (Candida albicans): capacity to inhibit adherence to plastic

B2: ADR4-6: Sap2 binding dAb, SEQ ID No 18 (protein, listed as Homo sapiens)
VHH: EVQLLESGGGLVQPGGSLRLSCAASGFRVSNYDLTWVRQAPGKGLEWVSTISATNGSTYYADSVKGRFTISRDNSKNTLYLQMNSLRAEDTAVYYCAAVTWWLLRHNDNLGFWGQGTLVTVSS
modifications: Sap2-binding dAb
- day of healing/resolution of infection (<1 CFU/μl of vaginal fluid), preventative [2]: 21 days

B3: ADR4-13: Sap2 binding dAb, SEQ ID No 25 (protein, listed as Homo sapiens)
VHH: EVQLLESGGGLVQPGGSLRLSCAASGFSISYKNMAWVRQAPGKGLEWVSAIKAANGSTYYADSVKGRFTISRDNSKNTLYLQMNSLRAEDTAVYYCATGSQKKRTYTFDFWGQGTLVTVSS
modifications: Sap2-binding dAb
- day of healing/resolution of infection (<1 CFU/μl of vaginal fluid), preventative [2]: 21 days
